Where two headings read alike, the source gives them in different places.
Legend:
PR3 = assay: RT-PCR / real-time qPCR of PR3 after foliar spray; format: in vivo, Oryza sativa L; settings: for PR3 expression induction: 1 mM BTH
From the text: (§1) To investigate the BTH- and INA-induced responses at the molecular level, we looked at the transcript expression levels of several rice defense-related genes, including PR1a, PR3, PR10, POX (peroxidase), and NH1. RT-PCR results of these genes for response to BTH treatment are shown in FIG. 5a and real-time quantitative PCR results in FIG. 5b. The input cDNA amounts were equalized first by using actin as the reference in FIG. 5a. Quantitative expression data in FIG. 5b are expressed as fold of actin gene expression. As expected, the NH3 levels in the nNT-NH3 plants (filled bar) are elevated by about 3- to 4-fold compared to Kit (open bar) control before treatment. […] Mock treatment appears also has effects on the NH3 levels.
(§2) For 10 mM BTH treatment, the commercial product Actigard (Syngenta) was first used for foliar spray on the rice plants. Pure BTH chemical […] (Wako) was subsequently used in place of Actigard. One mM of BTH and INA solutions were prepared in 0.05% Tween 20 for foliar spray.
(§3) Leaf samples were collected and frozen immediately in liquid nitrogen. Leaf samples were stored at −80° C. until use. Total RNA was extracted using the Trizol reagent (Sigma) according to the manufacturer's instruction. RNA was reverse-transcribed using reverse transcriptase Superscript (Invitrogen). Approximately 10 μg of RNA was used for each reverse transcription. RT-PCR was first performed with primers targeting an actin gene as the reference. An equal amount of cDNA input was then used for RT-PCR for NH3 or defense-related genes. RT-PCR for NH3 used primers NH3-RT1 (5′[…]3′; SEQ ID NO:29) and NH3-RT2 (5′[…]3; SEQ ID NO:30). RT-PCR for NTAP-NH3 used primers NH3-2 (5′[…]3; SEQ ID NO:31) and NTAP-5 (5′[…]3; SEQ ID NO:32). RT-PCR for NH1 used primers NH1-RT1 (5′[…]3; SEQ ID NO:33) and NH1-TAP2 (5′[…]3; SEQ ID NO:34). Genes PR1a (Os07g03710) and PR10 (Os12g36830) as markers for plants defense have been described before (Park et al., 2008).
(§4) Quantitative real time PCR were performed on a Bio-Rad CFX96 Real-Time System coupled to a C1000 Thermal Cycler (Bio-Rad). […]

[1] = system: peroxidase genes POX8.1 and POX22.3; assay: RT-PCR / real-time qPCR of peroxidase genes after foliar spray; format: in vivo, Oryza sativa L
From the text: as §1, §2, §3, §4

NH3 = assay: RT-PCR / real-time qPCR of NH3 after foliar spray; format: in vivo, Oryza sativa L
From the text: as §1, §2, §3, §4

[2] = system: rice plants (nNT-NH3, NTAP control, Kit); settings: for lesion mimic spots / bleached areas on leaves: 1 mM foliar spray, one week
PR10 = assay: RT-PCR / real-time qPCR of PR10 after foliar spray; format: in vivo, Oryza sativa L
From the text: as §1, §2, §3
Quantitative real time PCR were performed on a Bio-Rad CFX96 Real-Time System coupled to a C1000 Thermal Cycler (Bio-Rad). For qPCR reactions, the Bio-Rad SsoFast EvaGreen Supermix was used. QPCR primers used are as follows: Actin-Q1 ([…]; SEQ ID NO:35) and Actin-Q2 ([…]; SEQ ID NO:36) for actin gene; NH1-RT3 (CTGATCCGTTTCCCTCGGA; SEQ ID NO:37) and NH1-RT4 ([…]; SEQ ID NO:38) for the NH1 gene; NH3-RT3 ([…]; SEQ ID NO:39) and NH3-RT4 ([…]; SEQ ID NO:40) for the NH3 gene; PR3-1 ([…]; SEQ ID NO:41) and PR3-2 ([…]; SEQ ID NO:42) for the PR3 gene; POX8.1-1 ([…]; SEQ ID NO:43) and POX8.1-2 (CATGGGCTTCCTGATCTG; SEQ ID NO:44) for the POX8.1 gene; and POX22.3-1 (ATCGTGTCGACGACGACAT; SEQ ID NO:45) and POX22.3-2 ([…]; SEQ ID NO:46) for the POX22.3 gene. QPCR reactions were run at 56° C. annealing for 12 sec and 95° C. for 8 sec for 40 cycles.

NH1 = assay: RT-PCR / real-time qPCR of NH1 after foliar spray; format: in vivo, Oryza sativa L; settings: 1 mM BTH
From the text: as §1, §2, §3, §4

PR1a = assay: RT-PCR / real-time qPCR of PR1a after foliar spray; format: in vivo, Oryza sativa L; settings: 1 mM INA, Kit plants
From the text: as §1, §2
Leaf samples were collected and frozen immediately in liquid nitrogen. Leaf samples were stored at −80° C. until use. Total RNA was extracted using the Trizol reagent (Sigma) according to the manufacturer's instruction. […]
as §4

[3] = 1 mM BTH, both Kit and nNT-NH3 plants

c1ccc2snnc2c1 [BTH, benzothiadiazole]
PR3 expression induction (PR3; Kit plants): up to 2 fold
PR3 expression induction (PR3; nNT-NH3 plants): up to 10 fold
POX8.1 expression [1, 3]: significantly induces
POX22.3 expression [1, 3]: significantly induces
NH3 transcript levels (NH3; 1 mM BTH, Kit control plants, especially day 4 and day 8): slightly reduced
NH3 levels (NH3; 1 mM BTH, nNT-NH3 plants): further modestly induced at day 1
lesion mimic spots / bleached areas on leaves ([2]; Kit control plants): developed no lesion mimic spots at all
cell death phenotype ([2]; 10 mM foliar spray, NTAP control plants (Ubi-1 promoter)): completely clear of such cell death phenotype
time to dry-out of whole leaves ([2]; 10 mM foliar spray, nNT-NH3 plants): 3 to 4 days
PR10 expression induction (PR10; 1 mM BTH, Kit plants): up to 2 fold
PR10 expression induction over untreated Kit (PR10; 1 mM BTH, nNT-NH3 plants): ≤ 12 fold
PR10 expression induction over untreated nNT-NH3 (PR10; 1 mM BTH, nNT-NH3 plants): up to 51 fold
NH1 expression levels (NH1; Kit plants): relatively unchanged
NH1 level induction compared to untreated Kit (NH1; nNT-NH3 plants, one day after treatment): 2 fold
NH1 level induction (NH1; nNT-NH3 plants, one day after treatment, vs untreated nNT-NH3): about 3.5 fold

O=C(O)c1cc(Cl)nc(Cl)c1 [INA, 2,6-dichloroisonicotinic acid]
PR3 expression (PR3; 1 mM INA, Kit plants): slightly induces
POX expression ([1]; 1 mM INA, Kit and nNT-NH3 plants): induces
levels of NH3 expression (NH3; 1 mM INA): slightly reduces
lesion mimic spots / bleached areas on leaves ([2]; Kit control plants): little effects
lesion mimic spots / bleached areas on leaves ([2]; nNT-NH3 plants): developed typical lesion-mimic spots, but no bleached areas on leaves
PR10 expression (PR10; 1 mM INA, Kit plants): slightly induces
PR1a expression (PR1a): slightly induces

— patent publication US20130152227A1, “ENHANCED DISEASE […] INTRODUCTION OF NH3” (priority 2010, published 2013)
